Reference: patent US12161650B2, “Pharmaceutical compositions comprising a ryanodine receptor modulator and uses thereof” (priority 2021, dated 2024)
“And” between values parts separate entries of the source, which are not always exact repeats. Equal entries are not always repeated. Where two headings read alike, the source gives them in different places.

Assay: Phase 1b study in RYR1-Related Myopathy patients, plasma pharmacokinetics
Type: in vivo, human (RYR1-Related Myopathy patients)
Conditions: for Ctrough_D13 / concentration at 13 day: Day 13 trough; for concentration at 13 day: read-out: Ctrough_D13
Procedure: A Phase 1b study is performed in RYR1-Related Myopathy (RYR1-RM) affected individuals. Compound I was administered in a gastro-resistant tablet according to Example 3 at daily doses. The formulation comprised 20 mg Compound I (based on the mass of 4-[(7-methoxy-2,3-dihydro-1,4-benzothiazepin-4(5H)yl)methyl]benzoic acid). The first three participants were dosed with 120 mg of Compound I (6×20 mg tablets) daily for approximately 28 days. The second group was dosed with 200 mg of Compound I (10×20 mg tablets daily for approximately 28 days. Bloods for PK assessments were at baseline (Day 0, 24h PK), at the study mid-point (day 14±2 days, trough PK), and at the final study visit (day 28, 24h PK). Pharmacokinetic analysis was performed on plasma samples. PK parameters are set forth below: [table]

[1] = 120 mg oral daily for 28 days, Day 28, n 3, Max
[2] = 120 mg oral daily for 28 days, Day 28, n 3, Median
[3] = 120 mg oral daily for 28 days, Day 28, n 3, Min
[4] = 120 mg oral daily for 28 days, Day 28, n 3, arithmetic mean
[5] = 120 mg oral daily for 28 days, Day 28, n 3, geometric mean
[6] = human, plasma, po, 120 mg, 120 mg oral daily for 28 days, Day 28, n 3, arithmetic mean
[7] = human, plasma, po, 120 mg, 120 mg oral daily for 28 days, Day 28, n 3, geometric mean
[8] = human, plasma, po, 200 mg, 200 mg oral daily for 28 days, three subjects
[9] = human, plasma, po, 200 mg, single oral 200 mg, three subjects
[10] = single oral 120 mg, Day 1, three subjects, Max
[11] = single oral 120 mg, Day 1, three subjects, Median
[12] = single oral 120 mg, Day 1, three subjects, Min
[13] = single oral 120 mg, Day 1, three subjects, arithmetic mean
[14] = single oral 120 mg, Day 1, three subjects, geometric mean

- AUC0-tau [1]: 287 µg·h/mL
- Cmax, ss [1]: 21300 ng/mL
- Cmin [1]: 7760 ng/mL
- Tmax, ss [1]: 6.00 h
- Tmin [1]: 24.00 h
- Cmin [2]: 7020 ng/mL
- Tmin [2]: 24.000 h
- AUC0-tau [3]: 243 µg·h/mL
- Cmax, ss [3]: 16900 ng/mL
- Cmin [3]: 5800 ng/mL
- Tmin [3]: 1.00 h
- Cmin [4]: 6860 ng/mL
- Tmin [4]: 16.333 h
- Cmin [5]: 6811 ng/mL
- Tmin [5]: 8.320 h
- RA_AUC (120 mg oral daily, AUCtau Day 28/AUC0-24 Day 1, n 3, Max): 1.64
- RA_AUC (120 mg oral daily, AUCtau Day 28/AUC0-24 Day 1, n 3, Median): 1.618
- RA_AUC (120 mg oral daily, AUCtau Day 28/AUC0-24 Day 1, n 3, Min): 1,50
- RA_AUC (120 mg oral daily, AUCtau Day 28/AUC0-24 Day 1, n 3, arithmetic mean): 1.587
- RA_Cmax (120 mg oral daily, Cmax Day 28/Cmax Day 1, n 3, Max): 1.72
- RA_Cmax (120 mg oral daily, Cmax Day 28/Cmax Day 1, n 3, Median): 1.523
- RA_Cmax (120 mg oral daily, Cmax Day 28/Cmax Day 1, n 3, Min): 1.21
- RA_Cmax (120 mg oral daily, Cmax Day 28/Cmax Day 1, n 3, arithmetic mean): 1.485
- Ctrough_D13 (120 mg oral daily, n 3, Median): 8040 ng/mL
- Ctrough_D13 (120 mg oral daily, n 3, Min): 6710 ng/mL
- Ctrough_D13 (120 mg oral daily, n 3, geometric mean): 7970 ng/mL
- Time of Cmin, individual values (120 mg oral daily, Day 28, 1 for 1 subject, 24 for two subjects): 1 h and 24 h
- Tmax,ss, individual values (120 mg oral daily, Day 28, 4 for two participants, 6 for the third subject): 6 h
- AUC (human, plasma, po, 120 mg, 120 mg oral daily for 28 days, Day 28, n 3, Median, read-out: AUC0-tau): 285 µg·h/mL
- Cmax (human, plasma, po, 120 mg, 120 mg oral daily for 28 days, Day 28, n 3, Median, read-out: Cmax, ss): 19800 ng/mL
- Tmax (human, plasma, po, 120 mg, 120 mg oral daily for 28 days, Day 28, n 3, Median, read-out: Tmax): 4 h
- Cmax at 28 days [6]: 19300 ng/mL
- Tmax at 28 days [6]: 4.67 h
- AUC (human, plasma, po, 120 mg, 120 mg oral daily for 28 days, Day 28, n 3, arithmetic mean, read-out: AUC0-tau): 272 µg·h/mL
- Cmax at 28 days [7]: 19200 ng/mL
- Tmax at 28 days [7]: 4.58 h
- AUC (human, plasma, po, 120 mg, 120 mg oral daily for 28 days, Day 28, n 3, geometric mean, read-out: AUC0-tau): ~271 µg·h/mL
- Cmax (human, plasma, po, 120 mg, 120 mg oral daily for 28 days, Day 28, n 3, geometric mean, read-out: Cmax, ss): ~19200 ng/mL
- concentration at 13 day (human, plasma, po, 120 mg, 120 mg oral daily, n 3, Max): 9400 ng/mL
- concentration at 13 day (human, plasma, po, 120 mg, 120 mg oral daily, n 3, arithmetic mean): 8050 ng/mL
- concentration at 13 day (human, plasma, po, 120 mg, 120 mg oral daily, n 3, geometric mean): 7970 ng/mL
- Tmax (human, plasma, po, 120 mg, 120 mg oral daily, Day 28, 4 for two participants, 6 for the third subject, read-out: Tmax,ss, individual values): 4 h
- AUC (human, plasma, po, 120 mg, 120 mg oral daily, Day 28, read-out: AUC0-tau, individual values): 243 to 287 µg·h/mL
- Cmax (human, plasma, po, 120 mg, 120 mg oral daily, Day 28, read-out: Cmax,ss, individual values): 16900 to 21300 ng/mL
- concentration at 28 day (human, plasma, po, 120 mg, 120 mg oral daily, Day 28, read-out: Cmin, individual values): 5800 to 7760 ng/mL
- AUC(0-t) (human, plasma, po, 120 mg, single oral 120 mg, Day 1, three subjects, Median, read-out: AUC0-24): 175 µg·h/mL
- AUC(0-inf) (human, plasma, po, 120 mg, single oral 120 mg, Day 1, three subjects, Median, read-out: AUC0-inf): 274 µg·h/mL
- AUC(0-t) (human, plasma, po, 120 mg, single oral 120 mg, Day 1, three subjects, Median, read-out: AUC0-t): 175 µg·h/mL
- Cmax (human, plasma, po, 120 mg, single oral 120 mg, Day 1, three subjects, Median, read-out: Cmax): 12400 ng/mL
- Tmax (human, plasma, po, 120 mg, single oral 120 mg, Day 1, three subjects, Median, read-out: Tmax): 3 h
- half-life (human, plasma, po, 120 mg, single oral 120 mg, Day 1, three subjects, Median, read-out: t½ (converted)): 14.4 h
- AUC(0-t) (human, plasma, po, 120 mg, single oral 120 mg, Day 1, three subjects, arithmetic mean, read-out: AUC0-24): 172 µg·h/mL
- AUC(0-inf) (human, plasma, po, 120 mg, single oral 120 mg, Day 1, three subjects, arithmetic mean, read-out: AUC0-inf): 259 µg·h/mL
- AUC(0-t) (human, plasma, po, 120 mg, single oral 120 mg, Day 1, three subjects, arithmetic mean, read-out: AUC0-t): 172 µg·h/mL
- Cmax (human, plasma, po, 120 mg, single oral 120 mg, Day 1, three subjects, arithmetic mean, read-out: Cmax): 13300 ng/mL
- Tmax (human, plasma, po, 120 mg, single oral 120 mg, Day 1, three subjects, arithmetic mean, read-out: Tmax): 3 h
- half-life (human, plasma, po, 120 mg, single oral 120 mg, Day 1, three subjects, arithmetic mean, read-out: t½ (converted)): 14.1 h
- AUC(0-t) (human, plasma, po, 120 mg, single oral 120 mg, Day 1, three subjects, geometric mean, read-out: AUC0-24): 171 µg·h/mL
- AUC(0-inf) (human, plasma, po, 120 mg, single oral 120 mg, Day 1, three subjects, geometric mean, read-out: AUC0-inf): 257 µg·h/mL
- AUC(0-t) (human, plasma, po, 120 mg, single oral 120 mg, Day 1, three subjects, geometric mean, read-out: AUC0-t): 171 µg·h/mL
- Cmax (human, plasma, po, 120 mg, single oral 120 mg, Day 1, three subjects, geometric mean, read-out: Cmax): ~13100 ng/mL
- Tmax (human, plasma, po, 120 mg, single oral 120 mg, Day 1, three subjects, geometric mean, read-out: Tmax): 3 h
- half-life (human, plasma, po, 120 mg, single oral 120 mg, Day 1, three subjects, geometric mean, read-out: t½ (converted)): 14.1 h
- AUC(0-inf) (human, plasma, po, 120 mg, single oral 120 mg, Day 1, read-out: AUC0-inf, individual values): 212 to 290 µg·h/mL
- AUC(0-t) (human, plasma, po, 120 mg, single oral 120 mg, Day 1, read-out: AUC0-t, individual values): 150 to 190 µg·h/mL
- Cmax (human, plasma, po, 120 mg, single oral 120 mg, Day 1, read-out: Cmax, individual values): 11100 to 16300 ng/mL
- Tmax (human, plasma, po, 120 mg, single oral 120 mg, Day 1, read-out: TMax, all participants): 3 h
- half-life (human, plasma, po, 120 mg, single oral 120 mg, Day 1, read-out: half-life, individual values (converted)): 12.8 h
- concentration at 0 h [8]: 7450 ng/mL
- concentration at 0.5 h [8]: 8190 ng/mL
- concentration at 1 h [8]: 7900 ng/mL
- concentration at 2 hr (human, plasma, po, 200 mg, 200 mg oral daily for 28 days, three subjects, time 2 hr): 8830 ng/mL
- concentration at 3 h [8]: 13500 ng/mL
- concentration at 4 h [8]: 15100 ng/mL
- concentration at 5 h [8]: 17800 ng/mL
- concentration at 6 h [8]: 20000 ng/mL
- concentration at 8 h [8]: 18300 ng/mL
- concentration at 12 h [8]: 15400 ng/mL
- concentration at 24 h [8]: 8550 ng/mL
- Tmax (human, plasma, po, 200 mg, 200 mg oral daily for 28 days, read-out: Tmax, all participants): 5 to 6 h
- concentration at 0 h [9]: 0 ng/mL
- concentration at 0.5 h [9]: 0 ng/mL
- concentration at 1 h [9]: 0 ng/mL
- concentration at 2 h (human, plasma, po, 200 mg, single oral 200 mg, three subjects, time 2 hr): 176 ng/mL
- concentration at 3 h [9]: 1110 ng/mL
- concentration at 4 h [9]: 14300 ng/mL
- concentration at 5 h [9]: 17600 ng/mL
- concentration at 6 h [9]: 15900 ng/mL
- concentration at 8 h [9]: 13400 ng/mL
- concentration at 12 h [9]: 10000 ng/mL
- concentration at 24 h [9]: 5520 ng/mL
- Tmax (human, plasma, po, 200 mg, single oral 200 mg, read-out: TMax, all participants): 5 to 6 h
- half-life, individual values (single oral 120 mg, Day 1): 15.28 h and 14.40 h
- AUC0-24 [10]: 190 µg·h/mL
- AUC % extrap [10]: 36.4%
- AUC(0-inf) [10]: 290 µg·h/mL
- AUC(0-t) [10]: 190 µg·h/mL
- Cmax [10]: 16300 ng/mL
- Kel [10]: 0.0544 h⁻¹
- Tlag [10]: 0.50 h
- t½ [10]: 15.28 h
- AUC % extrap [11]: 34.33%
- Kel [11]: 0.04813 h⁻¹
- Tlag [11]: 0.000 h
- AUC0-24 [12]: 150 µg·h/mL
- AUC % extrap [12]: 29.4%
- AUC(0-inf) [12]: 212 µg·h/mL
- AUC(0-t) [12]: 150 µg·h/mL
- Cmax [12]: 11100 ng/mL
- Kel [12]: 0.0454 h⁻¹
- Tlag [12]: 0.00 h
- t½ [12]: 12.75 h
- AUC % extrap [13]: 33.36%
- Kel [13]: 0.04929 h⁻¹
- Tlag [13]: 0.167 h
- t½ [13]: 14.142 h
- AUC % extrap [14]: 33.23%
- AUC(0-inf) [14]: 256.6 µg·h/mL
- AUC(0-t) [14]: 170.8 µg·h/mL
- Kel [14]: 0.04915 h⁻¹
SMILES: COc1ccc2c(c1)CN(Cc1ccc(C(=O)O)cc1)CCS2.O=C(O)/C=C/C(=O)O [Compound I, 4-[(7-methoxy-2,3-dihydro-1,4-benzothiazepin-4(5H)yl)methyl]benzoic acid hemifumarate]
